According to the supplement of paper PMC10307832:

Experiments:
Assay in all cases: relative viability (nuclei count vs DMSO), 5 days (fraction); higher = more cells survive
NCI-H1666 = system: NCI-H1666
In short: (§1)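 Relative viability is defined as nuclei in treated wells over nuclei in vehicle wells. Duplicate plates were run and medians reported. Lung cancer cell lines in 1536-well plates were dosed by pin tool one day after seeding, with one drug or with a fixed anchor-drug dose plus five library-drug doses (not always all listed) in √10 steps, and nuclei were counted after 5 days.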

H3255 = system: H3255
In short: as §1

NCI-H1755 = system: NCI-H1755
In short: as §1

NCI-H1650 = system: NCI-H1650
In short: as §1

A-427 = system: A-427
In short: as §1

ChaGo-K-1 = system: ChaGo-K-1
In short: as §1

NCI-H838 = system: NCI-H838
In short: as §1

NCI-H2228 = system: NCI-H2228
In short: as §1

SW 1573 = system: SW 1573
In short: as §1

NCI-H1944 = system: NCI-H1944
In short: as §1

NCI-H520 = system: NCI-H520
In short: as §1

NCI-H2347 = system: NCI-H2347
In short: as §1

NCI-H460 = system: NCI-H460
In short: as §1

NCI-H2085 = system: NCI-H2085
In short: as §1

NCI-H1355 = system: NCI-H1355
In short: as §1

NCI-H441 = system: NCI-H441
In short: as §1

NCI-H322M = system: NCI-H322M
In short: as §1

EKVX = system: EKVX
In short: as §1

NCI-H3122 = system: NCI-H3122
In short: as §1

LK-2 = system: LK-2
In short: as §1

NCI-H650 = system: NCI-H650
In short: as §1

NCI-H358 = system: NCI-H358
In short: as §1

Question: With `O=c1[nH]c2ccccc2n1C1CCN(CCCC(c2ccc(F)cc2)c2ccc(F)cc2)CC1` [Pimozide] + CC(=O)c1c(C)c2cnc(Nc3ccc(N4CCNCC4)cn3)nc2n(C2CCCC2)c1=O [Palbociclib] (partner 0.5 µM) as the compound, how does the relative viability (NCI-H1666; first compound 0.08 µM) read?
Answer: 0.603

Question: And the relative viability (NCI-H1666; first compound 0.253 µM)?
Answer: 0.653

Question: What about the relative viability (NCI-H1666; first compound 0.8 µM) of the same compound?
Answer: 0.606

Question: What about the relative viability (NCI-H1666; first compound 2.53 µM) of the same compound?
Answer: 0.715

Question: And the relative viability (NCI-H1666; first compound 8 µM)?
Answer: 0.666

Question: What about the relative viability (H3255; first compound 0.253 µM) of the same compound?
Answer: 0.312

Question: And the relative viability (H3255; first compound 0.8 µM)?
Answer: 0.299

Question: What about the relative viability (H3255; first compound 2.53 µM) of the same compound?
Answer: 0.307

Question: What about the relative viability (H3255; first compound 8 µM) of the same compound?
Answer: 0.312

Question: And the relative viability (NCI-H1755; first compound 0.08 µM)?
Answer: 0.448

Question: What about the relative viability (NCI-H1755; first compound 0.253 µM) of the same compound?
Answer: 0.337

Question: What about the relative viability (NCI-H1755; first compound 0.8 µM) of the same compound?
Answer: 0.447

Question: And the relative viability (NCI-H1755; first compound 2.53 µM)?
Answer: 0.416

Question: And the relative viability (NCI-H1755; first compound 8 µM)?
Answer: 0.46

Question: What about the relative viability (NCI-H1650; first compound 0.08 µM) of the same compound?
Answer: 0.287

Question: And the relative viability (NCI-H1650; first compound 0.253 µM)?
Answer: 0.378

Question: And the relative viability (NCI-H1650; first compound 0.8 µM)?
Answer: 0.265

Question: What about the relative viability (NCI-H1650; first compound 2.53 µM) of the same compound?
Answer: 0.352

Question: And the relative viability (NCI-H1650; first compound 8 µM)?
Answer: 0.271

Question: What about the relative viability (A-427; first compound 0.08 µM) of the same compound?
Answer: 0.531

Question: What about the relative viability (A-427; first compound 0.253 µM) of the same compound?
Answer: 0.57

Question: And the relative viability (A-427; first compound 0.8 µM)?
Answer: 0.462

Question: What about the relative viability (A-427; first compound 2.53 µM) of the same compound?
Answer: 0.457

Question: And the relative viability (A-427; first compound 8 µM)?
Answer: 0.497

Question: What about the relative viability (ChaGo-K-1; first compound 0.08 µM) of the same compound?
Answer: 0.918

Question: And the relative viability (ChaGo-K-1; first compound 0.253 µM)?
Answer: 0.955

Question: And the relative viability (ChaGo-K-1; first compound 0.8 µM)?
Answer: 0.9

Question: What about the relative viability (ChaGo-K-1; first compound 2.53 µM) of the same compound?
Answer: 0.903

Question: And the relative viability (ChaGo-K-1; first compound 8 µM)?
Answer: 0.9

Question: What about the relative viability (NCI-H838; first compound 0.08 µM) of the same compound?
Answer: 0.252

Question: And the relative viability (NCI-H838; first compound 0.253 µM)?
Answer: 0.251

Question: And the relative viability (NCI-H838; first compound 0.8 µM)?
Answer: 0.203

Question: And the relative viability (NCI-H838; first compound 2.53 µM)?
Answer: 0.244

Question: And the relative viability (NCI-H838; first compound 8 µM)?
Answer: 0.215

Question: And the relative viability (NCI-H2228; first compound 0.08 µM)?
Answer: 0.517

Question: What about the relative viability (NCI-H2228; first compound 0.253 µM) of the same compound?
Answer: 0.58

Question: What about the relative viability (NCI-H2228; first compound 0.8 µM) of the same compound?
Answer: 0.606

Question: And the relative viability (NCI-H2228; first compound 2.53 µM)?
Answer: 0.587

Question: What about the relative viability (NCI-H2228; first compound 8 µM) of the same compound?
Answer: 0.417

Question: What about the relative viability (SW 1573; first compound 0.08 µM) of the same compound?
Answer: 0.422

Question: What about the relative viability (SW 1573; first compound 0.253 µM) of the same compound?
Answer: 0.318

Question: What about the relative viability (SW 1573; first compound 0.8 µM) of the same compound?
Answer: 0.249

Question: And the relative viability (SW 1573; first compound 2.53 µM)?
Answer: 0.214

Question: And the relative viability (SW 1573; first compound 8 µM)?
Answer: 0.146

Question: What about the relative viability (NCI-H1944; first compound 0.08 µM) of the same compound?
Answer: 0.333

Question: And the relative viability (NCI-H1944; first compound 2.53 µM)?
Answer: 0.253

Question: What about the relative viability (NCI-H1944; first compound 8 µM) of the same compound?
Answer: 0.334

Question: What about the relative viability (NCI-H520; first compound 0.08 µM) of the same compound?
Answer: 0.265

Question: And the relative viability (NCI-H520; first compound 0.253 µM)?
Answer: 0.22

Question: What about the relative viability (NCI-H520; first compound 0.8 µM) of the same compound?
Answer: 0.191

Question: What about the relative viability (NCI-H520; first compound 2.53 µM) of the same compound?
Answer: 0.217

Question: And the relative viability (NCI-H520; first compound 8 µM)?
Answer: 0.213

Question: And the relative viability (NCI-H2347; first compound 0.08 µM)?
Answer: 0.432

Question: And the relative viability (NCI-H2347; first compound 0.253 µM)?
Answer: 0.418

Question: What about the relative viability (NCI-H2347; first compound 0.8 µM) of the same compound?
Answer: 0.463

Question: And the relative viability (NCI-H2347; first compound 2.53 µM)?
Answer: 0.455

Question: What about the relative viability (NCI-H2347; first compound 8 µM) of the same compound?
Answer: 0.407

Question: And the relative viability (NCI-H460; first compound 0.08 µM)?
Answer: 0.137

Question: And the relative viability (NCI-H460; first compound 0.253 µM)?
Answer: 0.188

Question: What about the relative viability (NCI-H460; first compound 0.8 µM) of the same compound?
Answer: 0.139

Question: And the relative viability (NCI-H460; first compound 2.53 µM)?
Answer: 0.221

Question: What about the relative viability (NCI-H460; first compound 8 µM) of the same compound?
Answer: 0.184

Question: And the relative viability (NCI-H2085; first compound 0.08 µM)?
Answer: 0.452

Question: And the relative viability (NCI-H2085; first compound 0.253 µM)?
Answer: 0.483

Question: And the relative viability (NCI-H2085; first compound 0.8 µM)?
Answer: 0.438

Question: What about the relative viability (NCI-H2085; first compound 2.53 µM) of the same compound?
Answer: 0.479

Question: What about the relative viability (NCI-H2085; first compound 8 µM) of the same compound?
Answer: 0.422

Question: What about the relative viability (NCI-H1355; first compound 0.08 µM) of the same compound?
Answer: 0.338

Question: What about the relative viability (NCI-H1355; first compound 0.253 µM) of the same compound?
Answer: 0.387

Question: And the relative viability (NCI-H1355; first compound 0.8 µM)?
Answer: 0.329

Question: And the relative viability (NCI-H1355; first compound 2.53 µM)?
Answer: 0.388

Question: What about the relative viability (NCI-H1355; first compound 8 µM) of the same compound?
Answer: 0.407

Question: And the relative viability (NCI-H441; first compound 0.08 µM)?
Answer: 0.273

Question: And the relative viability (NCI-H441; first compound 0.253 µM)?
Answer: 0.252

Question: What about the relative viability (NCI-H441; first compound 0.8 µM) of the same compound?
Answer: 0.162

Question: What about the relative viability (NCI-H441; first compound 2.53 µM) of the same compound?
Answer: 0.218

Question: What about the relative viability (NCI-H441; first compound 8 µM) of the same compound?
Answer: 0.208

Question: What about the relative viability (NCI-H322M; first compound 0.08 µM) of the same compound?
Answer: 0.416

Question: What about the relative viability (NCI-H322M; first compound 0.253 µM) of the same compound?
Answer: 0.475

Question: And the relative viability (NCI-H322M; first compound 0.8 µM)?
Answer: 0.483

Question: And the relative viability (NCI-H322M; first compound 2.53 µM)?
Answer: 0.492

Question: And the relative viability (NCI-H322M; first compound 8 µM)?
Answer: 0.505

Question: And the relative viability (EKVX; first compound 0.253 µM)?
Answer: 0.4

Question: What about the relative viability (EKVX; first compound 0.8 µM) of the same compound?
Answer: 0.343

Question: What about the relative viability (EKVX; first compound 2.53 µM) of the same compound?
Answer: 0.387

Question: And the relative viability (EKVX; first compound 8 µM)?
Answer: 0.37

Question: What about the relative viability (NCI-H3122; first compound 0.08 µM) of the same compound?
Answer: 0.175

Question: And the relative viability (NCI-H3122; first compound 0.253 µM)?
Answer: 0.176

Question: What about the relative viability (NCI-H3122; first compound 0.8 µM) of the same compound?
Answer: 0.174

Question: What about the relative viability (NCI-H3122; first compound 2.53 µM) of the same compound?
Answer: 0.163

Question: What about the relative viability (NCI-H3122; first compound 8 µM) of the same compound?
Answer: 0.185

Question: What about the relative viability (LK-2; first compound 0.08 µM) of the same compound?
Answer: 0.646

Question: And the relative viability (LK-2; first compound 0.253 µM)?
Answer: 0.599

Question: And the relative viability (LK-2; first compound 0.8 µM)?
Answer: 0.698

Question: What about the relative viability (LK-2; first compound 8 µM) of the same compound?
Answer: 0.562

Question: What about the relative viability (NCI-H650; first compound 0.08 µM) of the same compound?
Answer: 0.396

Question: And the relative viability (NCI-H650; first compound 0.253 µM)?
Answer: 0.313

Question: And the relative viability (NCI-H650; first compound 0.8 µM)?
Answer: 0.331

Question: What about the relative viability (NCI-H650; first compound 2.53 µM) of the same compound?
Answer: 0.313

Question: What about the relative viability (NCI-H650; first compound 8 µM) of the same compound?
Answer: 0.291

Question: And the relative viability (NCI-H358; first compound 0.08 µM)?
Answer: 0.141

Question: What about the relative viability (NCI-H358; first compound 0.253 µM) of the same compound?
Answer: 0.132

Question: What about the relative viability (NCI-H358; first compound 0.8 µM) of the same compound?
Answer: 0.127

Question: And the relative viability (NCI-H358; first compound 2.53 µM)?
Answer: 0.147

Question: And the relative viability (NCI-H358; first compound 8 µM)?
Answer: 0.143
